Publication PMC10449817, “Different solubilizing ability of cyclodextrin derivatives for cholesterol in Niemann–Pick disease type C treatment” (Clinical and Translational Medicine, 2023)

Legend:
[1] = system: Npc1‐null Chinese hamster ovary cells; experiment: Measurement of intracellular cholesterol in NPC model cells; format: cell-based; details: 24 h exposure; for EC50: concentrations up to 1 mM, read-out: EC50, reduction of UC levels accumulated in Npc1‐null cells
Protocol: WT and Npc1‐null Chinese hamster ovary cells developed previously[34] were used. The cells were grown in a culture medium consisting of a 1:1 mixture of Dulbecco's modified Eagle's medium (DMEM) and F‐12 (Life Technologies) supplemented with 10% fetal bovine serum (FBS; Thermo Fisher Scientific, Inc.). The cells were maintained at 37°C in a saturated humidity atmosphere of 95% air and 5% CO2.
The measurement of intracellular cholesterol levels was performed in accordance with our previously developed method[35] with minor modification. Cells were pre‐incubated for 24 h and then exposed to a medium containing CD derivatives for 24 h. Thereafter, the cells were lysed, and aliquots were taken for cholesterol and protein measurements. Cholesterol was extracted from the cell lysate using chloroform, 2‐propanol and NP‐40 substitute (7:11:0.1), and the solution was then centrifuged (15 000 × g, 10 min, 4°C). The chloroform layer was evaporated, and the residues were dissolved in a solvent consisting of 2‐propanol, polyoxyethylene alkyl ether and polyoxyethylene lauryl ether (87:10:3). The dissolved samples were divided into two portions—one was incubated with esterase to measure total cholesterol (TC), and the other was incubated without esterase to measure UC. The cholesterol content was measured with a Determiner L FC kit. The EC level was calculated by deducting the UC level from the TC level. Intracellular cholesterol content was normalized by the total protein concentration as determined with a Pierce BCA Protein Assay Kit (Thermo Fisher Scientific, Inc.).

[2] = system: Npc1 homozygous mutant (Npc1 ^−/−) mice; experiment: Intracerebroventricular administration of CD derivatives in NPC model mice; format: in vivo; details: ICV 21.4 μmol/kg once at 4 weeks of age
Protocol: (§1) Male and female Npc1 homozygous mutant (BALB/cNctr‐Npc1 ^m1N, Npc1 ^−/−) mice,[36] kindly donated by Prof. Kousaku Ohno and Dr. Katsumi Higaki, were used as a murine model of NPC. Age‐matched WT mice were used as controls. The mice were bred and housed under specific pathogen‐free conditions in the Center for Animal Resources and Development, Kumamoto University. The mice were housed in cages in a room under controlled temperature (24°C) and a 12/12‐h light/dark cycle, and provided with free access to food and water. The animal experiments were performed at the Department of Clinical Chemistry and Informatics, Graduate School of Pharmaceutical Sciences, Kumamoto University. CD derivatives were dissolved in distilled water, and the osmotic pressure was adjusted with sodium chloride to near physiological osmolality. The pH was adjusted to 7.4 using sodium hydroxide, and the solution was filtered with an Advantec DISMIC‐13CP 0.45‐μm filter (Toyo Roshi Kaisha, Ltd.). […] The survival times were recorded based on the day when the endpoint was reached, defined as death or the inability to consume food or drink independently.
Organ samples were fixed in 4% buffered paraformaldehyde immediately after collection and then embedded in paraffin. […] Histopathological changes were photographed and analyzed by microscopy (BioRevo BZ‐9000; Keyence Co.). […]

[3] = system: WT mice; experiment: Systemic biocompatibility of subcutaneous CD derivatives in mice; format: in vivo; details: SC 5.7 mmol/kg, 24 h later
Protocol: as §1
Organ samples were fixed in 4% buffered paraformaldehyde immediately after collection and then embedded in paraffin. […] Histopathological changes were photographed and analyzed by microscopy (BioRevo BZ‐9000; Keyence Co.).

[4] = UC solubility analysis; binding constants of 1:1 and 2:1 CD:UC complexes; format: physicochemical; details: as a function of CD concentration, 37°C
Protocol: An excess of UC (10 mg) was added to each concentration of CD derivative in distilled water and shaken at 37°C for 3 h at 180 rpm. After equilibrium was attained (Figure S1), an aliquot was filtered through a Millex‐HP PES 0.45‐μm filter (Merck Millipore Ltd.). The filtrate was mixed and shaken for 10 min with an appropriate volume of chloroform/methanol (2:1, v/v). After centrifugation (1500 × g, 10 min, 4°C), the chloroform phase was recovered and evaporated. The residue was dissolved in a solvent consisting of 2‐propanol, polyoxyethylene alkyl ether and polyoxyethylene lauryl ether (87:10:3), and the concentration of UC was measured with a Determiner L FC kit (Kyowa Hakko Kirin Co., Ltd.) on a microplate reader (Tecan Group, Ltd.). Three replicate samples were performed. The binding constants of the 1:1 and the 2:1 CD:UC complexes were calculated according to a previously established method.[26]

[5] = system: WT mice; experiment: Auditory brainstem response (ABR) after CD derivatives in mice; format: in vivo; details: 1 week after, 4-32 kHz
Protocol: Male and female Npc1 homozygous mutant (BALB/cNctr‐Npc1 ^m1N, Npc1 ^−/−) mice,[36] kindly donated by Prof. Kousaku Ohno and Dr. Katsumi Higaki, were used as a murine model of NPC. Age‐matched WT mice were used as controls. The mice were bred and housed under specific pathogen‐free conditions in the Center for Animal Resources and Development, Kumamoto University. The mice were housed in cages in a room under controlled temperature (24°C) and a 12/12‐h light/dark cycle, and provided with free access to food and water. The animal experiments were performed at the Department of Clinical Chemistry and Informatics, Graduate School of Pharmaceutical Sciences, Kumamoto University. CD derivatives were dissolved in distilled water, and the osmotic pressure was adjusted with sodium chloride to near physiological osmolality. The pH was adjusted to 7.4 using sodium hydroxide, and the solution was filtered with an Advantec DISMIC‐13CP 0.45‐μm filter (Toyo Roshi Kaisha, Ltd.). Intracerebroventricular administration was performed using stereotaxic instruments (IMPACT‐1000C and KDS 310 Plus; Muromachi Kikai Co., Ltd.) under anaesthesia (medetomidine:midazolam:butorphanol, 0.3:4.0:5.0 mg/kg, intraperitoneally). The subcutaneous injection volume was 20 mL/kg for all experimental groups. The survival times were recorded based on the day when the endpoint was reached, defined as death or the inability to consume food or drink independently.
Auditory thresholds were measured using auditory brainstem response (ABR) System 3 (Tucker‐Davis Technologies). The animals were anaesthetized by intraperitoneal administration of xylazine and ketamine‐HCl in saline. Electrodes were placed beneath the pinna of the treated ear and at the vertex just below the surface of the skin, and the ground electrode was then placed under the contralateral ear. An average of 512 sweeps was calculated at 4, 8, 12, 20 and 32 kHz. The stimulus levels near the threshold were varied in 5‐dB steps, and the threshold was defined as the lowest level at which waves in the ABR could be clearly detected by visual inspection.

[6] = system: α‐glucosidase; details: cited from earlier work

| Substance | EC50 [1] [µM] | ABR threshold ([5]; single SC 5.7 mmol/kg) | other results |
| --- | --- | --- | --- |
| 2‐hydroxybutyl‐β‐CD [HB‐β‐CD] | 11.6 |  |  |
| 2‐hydroxybutyl‐γ‐CD [HB‐γ‐CD] | 11.5 |  | body weight decline [2]: mitigated; lifespan and median survival time [2]: drastically prolonged; total protein concentration in BALF [3]: significant increases |
| 2‐hydroxypropyl‐α‐CD [HP‐α‐CD] |  | did not cause any change | EC/TC ratio ([1]; Npc1‐null cells, above 0.1 mM): significantly diminished; intracellular UC levels ([1]; Npc1‐null cells, concentration‐dependent, 1 mM): significantly diminished; UC solubilization profile in aqueous solution [4]: negligible; ABR threshold ([5]; single ICV 21.4 μmol/kg): did not cause any change |
| 2‐hydroxypropyl‐β‐CD [HP‐β‐CD, reference compound] | 40.3 | significantly increased |  |
| 2‐hydroxypropyl‐γ‐CD [HP‐γ‐CD] | 69.6 | only a moderate increase |  |
| mono‐6‐O‐α‐glucosyl‐β‐CD [G1‐β‐CD] | 59.6 |  |  |
| mono‐6‐O‐α‐glucosyl‐γ‐CD [G1‐γ‐CD] | 156 |  |  |
| mono‐6‐O‐α‐maltosyl‐β‐CD [G2‐β‐CD] | 56 |  | biodegradation to G1‐β‐CD in whole blood [6]: rapidly biodegraded |
| mono‐6‐O‐α‐maltosyl‐γ‐CD [G2‐γ‐CD] | 182 |  |  |
